From ChEMBL document CHEMBL3272304, “Syntheses of heterocylic fused thiazole acetic acids. 2” (1976)
Active and inactive are the calls of the source. The rule behind the calls is not given here.

Columns and labels:
Assay type in all cases: functional
[1] = system: Mycobacterium tuberculosis; test: Antitubercular activity against Mycobacterium tuberculosis H37Rv
[2] = system: Lewis lung carcinoma cell line; test: Antimetastatic activity against mouse LLC cells allografted in BDF1 mouse assessed as increase in host survival
Mus musculus = test: Antidepressant activity in po dosed mouse assessed as antagonism of reserpine-induced ptosis
[3] = system: Lewis lung carcinoma cell line; test: Antimetastatic activity against mouse LLC cells allografted in BDF1 mouse assessed as increase in host survival at 150 mg/kg relative to control

CCOC(=O)CC1Sc2nc(=O)cc(NC(C)=O)n2C1(O)c1ccc(Cl)cc1 (configuration not stated)
Activity [1]: 1 µg/mL

COC(=O)CC1Sc2nc3ccccc3n2C1(O)c1ccc(Cl)cc1 (configuration not stated)
Activity [1]: 2 µg/mL
Activity [2]: Active

Br.COC(=O)CC1SC2=NCCN2C1(O)c1ccc(Cl)cc1 (configuration not stated)
ED50 (Mus musculus): 0.5 mg/kg
Activity [1]: 1 µg/mL

Br.CCOC(=O)CC1SC2=NCCN2C1(O)c1ccc(Cl)cc1 (configuration not stated)
Activity [1]: 5 µg/mL

O=C(O)Cc1sc2nc3ccccc3n2c1-c1ccc(Cl)cc1
Activity [2]: Active

Br.CCOC(=O)CC1SC2=NCCCN2C1(O)c1ccc(Cl)cc1 (configuration not stated)
ED50 (Mus musculus): 0.118 mg/kg

Br.O=C(O)CC1SC2=NCCCN2C1(O)c1ccc(Cl)cc1 (configuration not stated)
ED50 (Mus musculus): 0.25 mg/kg
Activity [2]: inactive

Br.O=C(O)CC1SC2=NCCN2C1(O)c1ccc(Cl)cc1 (configuration not stated)
ED50 (Mus musculus): 0.22 mg/kg

NNC(=O)c1ccncc1 [ISONIAZID]
Activity [1]: 0.005 µg/mL

COC(=O)CC(Sc1nc2ccccc2[nH]1)C(=O)c1ccc(Cl)cc1 (configuration not stated)
Activity [1]: 1 µg/mL

Br.COC(=O)CC1Sc2nc3ccccc3n2C1(O)c1ccccc1 (configuration not stated)
Activity [1]: 5 µg/mL

CCOC(=O)CC(Sc1nc2ccccc2[nH]1)C(=O)c1ccc(Cl)cc1 (configuration not stated)
Activity [1]: 1 µg/mL

O=C(O)CC1Sc2nc3ccccc3n2C1(O)c1ccc(Cl)cc1 (configuration not stated)
T/C [3]: 37%

CCOC(=O)CC1Sc2nc3ccccc3n2C1(O)c1ccc(Cl)cc1 (configuration not stated)
Activity [1]: 1 µg/mL
Activity [2]: Active

Br.COC(=O)CC1SC2=NCCN2C1(O)c1ccccc1 (configuration not stated)
ED50 (Mus musculus): 0.5 mg/kg
Activity [1]: 5 µg/mL

Br.CCOC(=O)CC1SC2=NCCN2C1(O)c1ccccc1 (configuration not stated)
ED50 (Mus musculus): 0.27 mg/kg
Activity [1]: 5 µg/mL
